Assay results reported in US20160318856A1, “Substituted Urea eIF2alpha Kinase Activators” (THE BRIGHAM AND WOMEN'S HOSPITAL, INC., priority 2013, published 2016).
Like-named read-outs stand apart in the source and are kept apart here.

Columns and labels:
[1] = test system: eIF2α phosphorylation (eIF2•GTP•Met-tRNAi ternary complex; HRI activation); experiment: surrogate dual luciferase eIF2α phosphorylation (ternary complex) assay; assay type: cell-based, human; settings: for maximal fold induction: Homo sapiens, read-out: Emax (F/R)
Source text: The dual luciferase expression vector and other plasmids used for these studies were previously described (see, for example, Ziegeler, G. et al. Journal of Biological Chemistry 2010, 285(20), 15408-19). The ternary complex assay, surrogate of eIF2α phosphorylation, has been described elsewhere (see, for example, Chen, T. et al. Nature Chemical Biology 2011, 7(9), 610-6). Briefly, the pBISA vector, which contains seven copies of the tetracycline-regulated transactivator response element (TRE), is flanked on both sides by minimal human cytomegalovirus (CMV) minimal promoters allowing bi-directional transcription and two MCSs (multiple cloning sites). Firefly and renilla luciferases were subcloned into MCS-I and MCS-II, respectively. This plasmid, designated pBISA-DL, transcribes two mRNAs that contain the 90 nucleotide plasmid derived 5′UTR (same sequence in both mRNAs), and the ORF encoding either firefly or renilla luciferase followed by a polyadenylation sequence. This plasmid was further modified by inserting the 5′UTR of ATF-4 mRNA into MCS-I in front of the firefly luciferase mRNA. Transcription from this unit generates an mRNA that contains the firefly luciferase ORF preceded by a 5′UTR composed of 90 nucleotides derived from the plasmid and 267 nucleotides derived from the 5′UTR of ATF-4 mRNA. Transcription from the other unit generates an mRNA that contains the renilla luciferase ORF proceeded only by the 90-nucleotide plasmid-derived sequence in the 5′UTR (pBISA-DL (ATF-4)) (see, for example, Chen, T. et al. Nature Chemical Biology 2011, 7(9), 610-6).
Cells expressing firefly and renilla luciferases were assayed with a dual glow luciferase assay kit, per manufacturer's instruction (Promega Inc., Madison, Wis.). The data calculations were carried out as the ratio of firefly to renilla luciferase signal.
A library of 1900 urea compounds was screened in the surrogate dual luciferase eIF2α phosphorylation (ternary complex) assay. This library was originally assembled and screened for inhibition of sEH by Hammock's group at UC-Davis (see, for example, Chen, T. et al. Nature Chem Biol 2011, 7, 610-616; Ziegeler, G et al. J Biol Chem 2010, 285, 15408-15419). We developed this assay in order to identify compounds that activate HRI, taking advantage of the fact that activated HRI phosphorylates eIF2α thereby reducing the amount of the eIF2•GTP•Met-tRNAi ternary complex that results in inhibition of translation of many mRNAs but paradoxically increases translation of some mRNAs that contain multiple upstream ORF (uORF) in their 5′ untranslated regions (UTRs). In our assay, firefly (F) luciferase mRNA is fused to 5′UTR of activating transcription factor 4 (ATF-4) mRNA that has multiple uORFs while renilla (R) luciferase mRNA is fused to a 5′UTR lacking any uORFs. Compounds that reduce the amount of the ternary complex, such as those activating HRI, would increase F luciferase expression while decreasing the R luciferase expression, resulting in an increased F/R luciferase ratio. To calculate the activity scores, the F/R ratios for every compound-treated wells were normalized to vehicle-treated (DMSO) wells that was arbitrarily set at 1 (F/R=1).

[2] = test system: CRL-2813 human melanoma cancer cells; experiment: cell proliferation (SRB) assay, CRL-2813; assay type: cell-based; settings: read-out: IC50
Experimental: Cells were seeded in 96-well plates and maintained for 5 days in the presence of 0.5 to 20 μM of individual compound, and cell proliferation was measured by the sulforhodamine B (SRB) assay as described previously (see, for example, Palakurthi, S. S. et al. Cancer Research 2000, 60(11), 2919-2925). Briefly, at the end of a 5-day treatment, cells were fixed in 10% cold trichloroacetic acid. Cell number was estimated by measuring the remaining bound dye of sulforhodamine B after washing. The percentage of growth was calculated by using the equation: 100×[(T−T0)/(C−T0)], where T and C represent the absorbance in treated and control cultures at Day 5, and T0 at time zero, respectively. If T is less than T0, cell death has occurred and can be calculated from 100×[(T−T0)/T0].

[3] = ternary complex assay, F/R normalized to vehicle (DMSO = 1)
[4] = cell proliferation assay (SRB, 5 days), cell line not named in Table 1, values equal CRL-2813 values of Tables 5/8
[5] = Homo sapiens, CRL2813, 120 h, cell proliferation assay (SRB, 5 days), cell line not named in Table 1, values equal CRL-2813 values of Tables 5/8
[6] = surrogate eIF2α phosphorylation assay, Table 3
[7] = Homo sapiens, CRL2813, cell proliferation assay, Table 3, cell line not named, values equal CRL-2813 values of Table 8
[8] = cell proliferation assay, Table 2, cell line not named

Structure (SMILES)	Emax (F/R) ([1]; 7.5 μM compound)	Emax (F/R) ([1]; 15 μM compound)	Emax (F/R) ([1]; 30 μM compound)	IC50 [2, 8]	further results
COC(=O)c1cccc(NC(=O)NC2CCC(Oc3ccc(F)cc3)CC2)c1 (centres unmarked) [Compound I-11m]					Emax (F/R) [1, 3]: 6.83 F/R; IC50 [2, 4]: 9.2 ± 0.8 µM
COC(=O)c1ccccc1NC(=O)NC1CCC(Oc2ccc(F)cc2)CC1 (centres unmarked) [Compound I-11o, methyl 2-(3-(4-(4-fluorophenoxy)cyclohexyl)ureido)benzoate]					maximal fold induction [1, 3]: 3.79; IC50 [2, 5]: 14.5 ± 1.6 µM
COC(=O)c1ccc(NC(=O)NC2CCC(Oc3ccc(F)cc3)CC2)cc1 (centres unmarked) [Compound I-11p]					Emax (F/R) [1, 3]: 3.97 F/R; IC50 [2, 4]: 11.6 µM
O=C(Nc1cccc(C(=O)O)c1)NC1CCC(Oc2ccc(F)cc2)CC1 (centres unmarked) [Compound I-12m]					Emax (F/R) [1, 3]: 0.88 F/R; IC50 [2, 4]: > 20 µM
O=C(Nc1ccccc1C(=O)O)NC1CCC(Oc2ccc(F)cc2)CC1 (centres unmarked) [Compound I-12o, 2-(3-(4-(4-fluorophenoxy)cyclohexyl)ureido)benzoic acid]					maximal fold induction [1, 3]: 1.2; IC50 [2, 5]: > 20 µM
O=C(Nc1ccc(C(=O)O)cc1)NC1CCC(Oc2ccc(F)cc2)CC1 (centres unmarked) [Compound I-12p]					Emax (F/R) [1, 3]: 3.49 F/R; IC50 [2, 4]: 11.6 ± 1.8 µM
O=C(Nc1ccccc1)NC1CCC(Oc2ccc(F)cc2)CC1 (centres unmarked) [Compound I-13]					Emax (F/R) [1, 3]: 1.65 F/R; IC50 [2, 4]: 20 ± 2 µM
O=C(Nc1cccc(C(F)(F)F)c1)NC1CCC(Oc2ccc(Cl)cc2)CC1 (centres unmarked) [Compound I-16, 1-(4-(4-Chlorophenoxy)cyclohexyl)-3-(3-(trifluoromethyl)phenyl)urea]					maximal fold induction [1, 6]: 6.73; IC50 [2, 7]: 2 ± 0.1 µM
O=C(Nc1cccc(C(F)(F)F)c1)NC1CCC(Oc2ccccc2C(F)(F)F)CC1 (centres unmarked) [Compound I-19, 1-(4-(2-(Trifluoromethyl)phenoxy)cyclohexyl)-3-(3-(trifluoromethyl)phenyl)urea]					maximal fold induction [1, 6]: 15.7; IC50 [2, 7]: 1.4 ± 0.3 µM

Second part, led by results:

Emax (F/R) ([1]; 7.5 μM compound)	Emax (F/R) ([1]; 15 μM compound)	Emax (F/R) ([1]; 30 μM compound)	IC50 [2, 8]	Structure (SMILES)	further results
0.72 F/R	0.77 F/R	0.67 F/R	> 20 µM	O=C(Nc1cccc(F)c1)N[C@H]1CC[C@H](OCc2c(F)cccc2F)CC1 [II-1m]	
0.96 F/R	0.98 F/R	0.89 F/R	> 20 µM	O=C(Nc1ccccc1F)N[C@H]1CC[C@H](OCc2c(F)cccc2F)CC1 [II-1o]	
0.79 F/R	0.78 F/R	0.75 F/R	> 20 µM	O=C(Nc1cccc(Cl)c1)N[C@H]1CC[C@H](OCc2c(F)cccc2F)CC1 [II-2m]	
0.81 F/R	0.69 F/R	0.81 F/R	> 20 µM	O=C(Nc1ccccc1Cl)N[C@H]1CC[C@H](OCc2c(F)cccc2F)CC1 [II-2o]	
0.95 F/R	0.96 F/R	0.74 F/R	> 20 µM	O=C(Nc1ccc(Cl)cc1)N[C@H]1CC[C@H](OCc2c(F)cccc2F)CC1 [II-2p]	
1.07 F/R	1.04 F/R	0.98 F/R	> 20 µM	O=C(Nc1cccc(Br)c1)N[C@H]1CC[C@H](OCc2c(F)cccc2F)CC1 [II-3m]	
0.96 F/R	0.99 F/R	0.96 F/R	> 20 µM	O=C(Nc1ccccc1Br)N[C@H]1CC[C@H](OCc2c(F)cccc2F)CC1 [II-3o]	
0.76 F/R	0.85 F/R	0.73 F/R	> 20 µM	O=C(Nc1ccc(Br)cc1)N[C@H]1CC[C@H](OCc2c(F)cccc2F)CC1 [II-3p]	
0.69 F/R	0.75 F/R	0.72 F/R	> 20 µM	O=C(Nc1cccc(I)c1)N[C@H]1CC[C@H](OCc2c(F)cccc2F)CC1 [II-4m]	
0.81 F/R	0.74 F/R	0.81 F/R	> 20 µM	O=C(Nc1ccccc1I)N[C@H]1CC[C@H](OCc2c(F)cccc2F)CC1 [II-4o]	
0.76 F/R	0.82 F/R	0.67 F/R	> 20 µM	O=C(Nc1ccc(I)cc1)N[C@H]1CC[C@H](OCc2c(F)cccc2F)CC1 [II-4p]	
